Values quoted from earlier work in patent publication US10285987B2, “Device and kit for dosing and dispensing non-liquid medicine” (AmpliPharm Pharmaceuticals, LLC, priority 2017, dated 2019).

Conditions: skin contact

SMILES: Cn1nnc2c(C(N)=O)ncn2c1=O [temozolomide, 3,4-dihydro-3-methyl-4-oxoimidazo [5,1-d]-as-tetrazine-8-carboxamide]
- classification for skin corrosion/irritation and eye irritation: category 2
